# Assay results reported in publication PMC11645267, “Novel pharmacologic inhibition of lysine-specific demethylase 1 as a potential therapeutic for glioblastoma” (Cancer Gene Therapy, 2024).
# Key:
# GSC and LN229 cells = test: PARP cleavage (apoptosis) by western blot; format: cell-based; conditions: GSC1228, GSC222, GSC316, LN229; 5 μM
# Source text: (§1) Super-enhancers consist of enhancer clusters with abundant binding of transcription factors and are highly enriched with H3K27ac marks. The H3K4me2 increased regions included the MYC locus and H3K4me2 de novo regions comprised Nestin and SOX2 loci (Fig. 2F, Supplementary Fig. S5A). These regions were also identified as super-enhancers in GSCs using data from our previous study (Fig. 2F). Compared to the large increase in H3K4me2 in these regions, changes in H3K4me3 were subtle after S2172 treatment (only 2582 regions were acquired modification) (Fig. 2C). Increasing the me2/me3 ratio at H3K4 is associated with reduced gene expression.
# A mRNA expression of stem cell marker genes following 96 h treatment of GSC1228 with S2172 (5 μM). The y-axis indicates the expression change relative to DMSO-treated cells. Error bar indicates the SD. *P < 0.05. B Left panel, western blot analysis of MYC, Nestin, and SOX2 after treatment of GSC1228 with either DMSO or S2172 (5 μM) for 96 h. β-actin (ACTB) was used as the loading control. Right panel, Quantification of band signal intensities from the western blot. […] The ratio was calculated by dividing the cleaved-PARP band intensity by the full length-PARP band intensity. […]
# […] Quantification of signal intensity of western blot (right panel). […] Ratio was calculated by dividing cleaved band intensity by total protein band intensity. […]
# GSC1228 = test: Stemness / differentiation marker expression (qPCR, western blot); format: cell-based; conditions: GSC1228, 5 μM, 96 h
# Source text: as §1
# A mRNA expression of stem cell marker genes following 96 h treatment of GSC1228 with S2172 (5 μM). The y-axis indicates the expression change relative to DMSO-treated cells. Error bar indicates the SD. *P < 0.05. B Left panel, western blot analysis of MYC, Nestin, and SOX2 after treatment of GSC1228 with either DMSO or S2172 (5 μM) for 96 h. β-actin (ACTB) was used as the loading control. Right panel, Quantification of band signal intensities from the western blot. C mRNA expression of the differentiation marker gene, GFAP, following treatment of GSC1228 with S2172 (5 μM) for 96 h. The y-axis indicates the expression change relative to DMSO-treated cells. Error bar indicates the SD. D PARP cleavage ratio after treatment of GSC1228, GSC222, and GSC316 with S2172 (5 μM). The ratio was calculated by dividing the cleaved-PARP band intensity by the full length-PARP band intensity. Error bar indicates the SD. *P < 0.05. E Representative Western blot results of RAPR after treatment of GSC1228, GSC222, and GSC316 with either DMSO or S2172 (5 μM) for 96 h. The full length-PARP band (106 kDa) and cleaved PARP band (89 kDa) are shown. β-actin (ACTB) was used as the loading control. n = 4. […]
# instructions. For GSC cells, the CellTiter-Glo 3D Viability Assay (Promega, Madison, WI, USA) was used to measure the living cells. All proliferation experiments were repeated […]
# The density of bands was quantified using ImageJ software (https://imagej.nih.gov/ij/). […]
compound,measurement,setting,value
NC1CCC(NC2CC2c2cc(F)cc(F)c2OCc2ccccc2)CC1 (stereo not shown) [S2172],"apoptosis, increased cleaved PARP",GSC and LN229 cells,induced apoptosis
same,"mRNA level of stemness marker genes MYC, Nestin, SOX2",GSC1228,significantly downregulated
same,"protein level of MYC, Nestin, SOX2",GSC1228,tended to be downregulated
same,transcription of astrocytic marker GFAP,GSC1228,did not transcriptionally induce
